Holding throughout (assay): NCI anticancer screen, dose series, 48 h
The subject of assay [1] is T47D.
Assay [2] has as its system UACC-257.
Assay [3] concerns SNB-75.
The test system of assay [4] is MDA-MB-435.
For assay [5], the system named is SNB-19.
Assay [6] concerns 786-0.
In assay [7] the test system is MDA-N.
Assay [8] has as its system SK-MEL-5.
Assay [9] concerns DU-145.
Assay [10] has as its system U-251.
Assay [11] has as its system MOLT-4.
For assay [12], the system named is TK-10.
In assay [13] the test system is SK-MEL-28.
Assay [14] has as its system A498.
The subject of assay [15] is SF-295.
Assay [16] relates to Hs-578T.
The subject of assay [17] is NCI-H226.
Assay [18] deals with CAKI-1.
In assay [19] the test system is COLO 205.
Assay [20] concerns UO-31.

The structures appear in SMILES notation.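 Where inhibition never reached the appropriate level, the endpoint shown equals the highest concentration tested. Otherwise, values were interpolated linearly from a five-concentration, 48-hour dose response in 96-well plates. The concentration for 50% growth inhibition is given as GI50.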 Activity calls are given as the source filed them. Cut-off read from the data, not from the text of the source: active = GI50 up to about 1.1 µM and inactive = higher.

As for `CCn1c2ccccc2c2nnc(NCCCO)nc21`, the GI50 is 82 µM (inactive) in assay [1]; > 100 µM (inactive) in assay [2]; 44.1 µM (inactive) in assay [3]; > 100 µM (inactive) in [4]; > 100 µM (inactive) in assay [5]; > 100 µM (inactive) in assay [6]. Also, the GI50 in assay [7] was > 100 µM (inactive); in assay [8], 94.4 µM (inactive); in [9], > 100 µM (inactive); in assay [10], > 100 µM (inactive); in assay [11] it was 58.2 µM (inactive); in [12] it was > 100 µM (inactive). In addition, the GI50 in assay [13] is > 100 µM (inactive); in [14], > 100 µM (inactive); in [15] it was > 100 µM (inactive); in assay [16], 50.2 µM (inactive); in [17], > 100 µM (inactive); in [18], > 100 µM (inactive). Besides, the GI50 in assay [19] is > 100 µM (inactive).
For `COc1cc(C2=N/C(=C/c3cccs3)C(=O)O2)cc(OC)c1OC`, the GI50 in assay [1], in assay [2], in assay [3], in [4], in [5] and in assay [6] was > 100 µM (inactive) throughout. Moreover, the GI50 in [7], in assay [8], in assay [9], in [10], in assay [11] and in assay [12] was > 100 µM (inactive) throughout. In addition, the GI50 in [13], in assay [14], in assay [15], in [16], in [17] and in [18] was > 100 µM (inactive) in each case. Also, the GI50 in [19] was > 100 µM (inactive).
In the case of `COc1ccc(C(=O)/C=C/c2cc(O)c(O)c(F)c2F)c(OC)c1`, the GI50 in assay [1] is 15.2 µM (inactive); in [2] it was 15.9 µM (inactive); in assay [3] it was 22.4 µM (inactive); in assay [4], 17.9 µM (inactive); in assay [5], 27.2 µM (inactive); in assay [6] it was 8 µM (inactive). The GI50 in assay [7] is 12.7 µM (inactive); in [8], 11.5 µM (inactive); in assay [9], 23.9 µM (inactive); in assay [10], 11.1 µM (inactive); in assay [12] it was 22.5 µM (inactive); in [13] it was 30 µM (inactive). Besides, the GI50 is 20.1 µM (inactive) in [14]; 18.5 µM (inactive) in assay [15]; 61.4 µM (inactive) in [16]; 21.5 µM (inactive) in assay [17]; 35.2 µM (inactive) in [20]; 25.6 µM (inactive) in assay [18]. The GI50 in [19] is 15.6 µM (inactive).
For `Nc1ccc(/N=N/c2c(S(=O)(=O)O)cc3ccccc3c2S(=O)(=O)O)cc1`, the GI50 in assay [1], in assay [2], in [3], in [4], in assay [5] and in assay [6] was > 100 µM (inactive) each time. Further, the GI50 in assay [7], in assay [8], in [9], in assay [10], in [11] and in assay [12] was > 100 µM (inactive) throughout. The GI50 in assay [13], in assay [14], in [15], in assay [16], in assay [17] and in [20] was > 100 µM (inactive) in each case. For the same compound, in assay [18], the GI50 is > 100 µM (inactive).
As to `CC(C)=CCC/C(C)=C/CC/C(C)=C/CC/C(C)=C/C=C/C=C(\C)CC/C=C(\C)CC/C=C(\C)CCC=C(C)C`, the GI50 in assay [1] is 72.1 µM (inactive); in assay [2] it was > 100 µM (inactive); in [3], > 71.6 µM (inactive); in assay [4] it was > 76.6 µM (inactive); in assay [5], > 100 µM (inactive); in [6], 22.2 µM (inactive). Further, the GI50 was > 68.5 µM (inactive) in [7]; 44.1 µM (inactive) in [8]; > 56.9 µM (inactive) in [9]; 63.7 µM (inactive) in assay [10]; 19.7 µM (inactive) in assay [11]; > 58.7 µM (inactive) in assay [12]. For the same compound, the GI50 in assay [13] was > 100 µM (inactive); in assay [14] it was > 100 µM (inactive); in assay [15] it was > 100 µM (inactive); in assay [16] it was > 82.6 µM (inactive); in [17], > 100 µM (inactive); in assay [20], 25.3 µM (inactive). Moreover, the results for the GI50 in assay [18] and in assay [19] were 16.8 µM (inactive) and > 100 µM (inactive), respectively.
Turning to `N#CCCN(C(=O)Nc1ccc(NC(=O)N(CCC#N)c2ccccc2)cc1)c1ccccc1`, the GI50 in assay [1], in assay [3], in assay [4], in assay [5], in assay [6] and in assay [7] was > 100 µM (inactive) each time. Further, the GI50 in assay [8], in assay [9], in assay [10], in assay [11], in assay [13] and in [14] was > 100 µM (inactive) each time. The GI50 in assay [15], in assay [16], in assay [17], in assay [20], in [18] and in [19] was > 100 µM (inactive) throughout.
As to `O=c1oc2c([N+](=O)[O-])cc([N+](=O)[O-])cc2c2ccccc12`, the GI50 in assay [1], in assay [2], in assay [3], in assay [4], in assay [5] and in [6] was > 100 µM (inactive) in each case. Moreover, the GI50 in [7], in assay [8], in assay [9], in assay [10], in assay [11] and in assay [12] was > 100 µM (inactive) throughout. The GI50 in [13], in assay [14], in [15], in [16], in assay [17] and in [18] was > 100 µM (inactive) in each case. In [19], the GI50 was > 100 µM (inactive).
In the case of `CCOC(=O)NC1CN2CCC1CC2` (stereo unspecified), the GI50 in assay [1], in [2], in assay [3], in [4], in assay [5] and in [6] was > 100 µM (inactive) throughout. The GI50 in assay [7], in [8], in assay [9], in assay [10], in [11] and in assay [13] was > 100 µM (inactive) throughout. Also, the GI50 in assay [14], in assay [15], in assay [16], in assay [17], in assay [20] and in [18] was > 100 µM (inactive) each time. The GI50 in assay [19] is > 100 µM (inactive).
For `O=C1C=CC(=O)c2c1ccc1c3ccccc3n(-c3ccccc3)c21`, the GI50 in assay [1] was 2.05 µM (inactive); in assay [2], 5.65 µM (inactive); in [3], 18.9 µM (inactive); in assay [4] it was 14.1 µM (inactive); in [5], 19.5 µM (inactive); in assay [6] it was 4.86 µM (inactive). The GI50 is 5.64 µM (inactive) in [7]; 16.7 µM (inactive) in assay [8]; 19.8 µM (inactive) in [9]; 15.2 µM (inactive) in assay [10]; 0.561 µM (active) in assay [11]; 7.66 µM (inactive) in assay [12]. Moreover, the GI50 is 3.34 µM (inactive) in assay [13]; 17.9 µM (inactive) in [14]; 14.6 µM (inactive) in [15]; 17.7 µM (inactive) in assay [16]; 18.3 µM (inactive) in assay [17]; 11.9 µM (inactive) in assay [20]. Also, the results for the GI50 in assay [18] and in [19] were 7.18 µM (inactive) and 4.56 µM (inactive), respectively.
For `CC(C)(C)c1cc(C=C(C#N)C#N)cc(C(C)(C)C)c1O` [TYRPHOSTIN A9], the GI50 is 0.135 µM (active) in assay [1]; 0.281 µM (active) in [2]; 0.857 µM (active) in assay [3]; 0.76 µM (active) in assay [4]; 0.392 µM (active) in assay [5]; 0.652 µM (active) in assay [6]. In addition, the GI50 in assay [7] is 0.608 µM (active); in assay [8], 0.376 µM (active); in assay [9], 0.372 µM (active); in assay [10] it was 0.692 µM (active); in assay [11], 0.374 µM (active); in assay [12] it was 2.05 µM (inactive). Besides, the GI50 in [13] was 3.2 µM (inactive); in assay [14], 0.277 µM (active); in assay [15], 0.455 µM (active); in [16], 0.384 µM (active); in [17] it was 1.34 µM (inactive); in [20], 0.315 µM (active). In addition, in assay [18], the GI50 is 0.738 µM (active).

(Values after ChEMBL document CHEMBL1201862, “PubChem BioAssay data set” (2004).)
